pIC50: −log10 of the molar value.
Assays:
[1] = test system: KB tumor cells; set-up: method as in Xing et al., 2017; conditions: positive control, ref Xing et al., 2017, read-out: IC50, inhibitory action on KB tumor cells; cited from earlier work
[2] = test system: human plasma proteins; set-up: method as in Robinson et al., 2004; conditions: ref Robinson et al., 2004; cited from earlier work
[3] = set-up: method as in Pangeni et al., 2018; conditions: rat, ref Pangeni et al., 2018, cited from earlier work
[4] = Pharmacokinetics and bioavailability in rats after single oral and intravenous doses; assay type: in vivo, Sprague-Dawley rats; conditions: rat, pemetrexed 20 mg/kg vs glytrexate 25 mg/kg

oral AUC of pemetrexed relative to oral glytrexate [4]: approximately 12 fold
Structure (SMILES): Nc1nc2[nH]cc(CCc3ccc(C(=O)N[C@@H](CCC(=O)O)C(=O)O)cc3)c2c(=O)[nH]1 [pemetrexed]
pIC50 [1]: 7.15 | human plasma protein binding rate [2]: 81% | AUC after intravenous administration ([3]; intravenous 10 mg/kg): 31.3 ± 5.34 μg⋅h/mL | T1/2 after intravenous administration ([3]; intravenous): 34.4 ± 4.26 min | AUC after oral administration ([3]; oral 20 mg/kg): 7.55 ± 0.938 μg⋅h/mL | oral bioavailability [3]: 12.0 ± 1.45%
